Consider 4 compounds from patent publication US12486259B2, “FXR agonist having pyrazine structure, and preparation method and use” (JIANGSU TASLY DIYI PHARMACEUTICAL CO., LTD., priority 2020, dated 2025).

Data set [1] deals with human colon adenocarcinoma cell line Caco-2 monolayer model. Nature of the data set: Caco-2 monolayer cell membrane transport experiment. The procedure: (§1) The bi-directional transport of target compounds from apical side (AP) to basolateral side (BL) and from BL side to AP side is studied by using human colon adenocarcinoma cell line Caco-2 monolayer model. The transport parameters, apparent permeability coefficient (Papp) and efflux ratio are calculated by quantitative analysis with high performance liquid chromatography (HPLC).
Background: Passage across Caco-2 layers is used to estimate intestinal permeability.

Experiment in data set [2]: as above
The settings on record: human; for efflux ratio: Caco-2; for Papp A→B: Caco-2, Papp A-B; for Papp B→A: Caco-2, Papp B-A. The procedure:
as §1

A further data set addresses T1, FXR (Homo sapiens, UniProt Q96RI1).
T1 construct: expressed in transfected cells
T1 sequence (Q96RI1 1-486): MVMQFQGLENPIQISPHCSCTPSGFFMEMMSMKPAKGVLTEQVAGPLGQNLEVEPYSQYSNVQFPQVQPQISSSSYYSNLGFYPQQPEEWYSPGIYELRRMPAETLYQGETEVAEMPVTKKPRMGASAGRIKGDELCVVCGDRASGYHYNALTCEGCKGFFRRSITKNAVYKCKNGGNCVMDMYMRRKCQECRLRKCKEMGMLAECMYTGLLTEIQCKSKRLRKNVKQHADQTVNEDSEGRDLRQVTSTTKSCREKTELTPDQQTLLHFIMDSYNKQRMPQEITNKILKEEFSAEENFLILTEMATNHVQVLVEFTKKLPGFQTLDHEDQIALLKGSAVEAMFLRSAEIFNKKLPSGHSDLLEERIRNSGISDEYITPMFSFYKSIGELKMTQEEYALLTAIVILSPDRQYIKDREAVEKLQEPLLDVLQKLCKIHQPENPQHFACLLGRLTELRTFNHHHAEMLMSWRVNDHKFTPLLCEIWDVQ
The data set is described as follows: Intracellular FXR-TR-FRET experiment (pBIND-FXR / pG5Luc dual luciferase). The format is cell-based. The conditions noted are these: cellular level, 18 hours with compound. The procedure:
• 1. Cell culture: a, trypsinize dishes and seed cells are taken with appropriate density in 10 ml of complete […] at 37° C. b. Cells are incubated for 24 hours in 5% CO2 and humidified. • 2. Cell inoculation and transfection: FuGENE HD transfection reagent is used as a transfection reagent. • a. The transfection mixture is prepared according to the following procedure:
• b. The tube is tapped vigorously to mix the contents. The mixture is incubated at room temperature for 15 minutes. • c. Discs are trypsinized and cell density is determined. • d. The cytolymph is diluted to the desired volume at a density of 500,000 cells/ml (100 ul/well for 96-well plate). • e. The required volume of previously prepared transfection mixture is added to both cytolymph, and then 100 ul/well of cytolymph is dispensed onto the assay plate. • f. The assay plate is incubated under humidified conditions at 37° C., 5% CO2 for 24 hours. • 3. Compound preparation: • a. Compound stocks are prepared with a FXR working concentration of 10 mM and then diluted 3-fold in 100% DMSO. • b. 10 ul compound is added to 90 ul complete medium. • c. 5 ul compound solution is added to each well. • d. The plate is incubated at 37° C., 5% CO2 and humidified for 18 hours. • 4. Dual luciferase assay: the firefly and Renilla luciferase signals are analyzed by Dual Luciferase Reporter Assay System from Promega. Envision is used as a photometer. • 5. Result calculation: data values are normalized by dividing the firefly signal by the Renilla signal. “F/R” means “firefly/Renilla”. This normalization eliminates differences in different cell numbers and transfection efficiencies in each well. The % Activation value is calculated. The % Activation value is calculated by the following formula.
X is the “F/R” value for each concentration point. The minimum value is the average “F/R” value for the no compound control. The maximum value is the average “F/R” value of the reference compound control. • 6.
For orientation: Time-resolved FRET reads energy transfer from a long-lived donor to a nearby acceptor.

Data set [3] has as its target T2, GST-labeled recombinant human FXR protein (Homo sapiens, UniProt Q96RI1).
T2 construct: purchased Invitroren (so in the source)
T2 sequence (Q96RI1 262-486 limits assumed): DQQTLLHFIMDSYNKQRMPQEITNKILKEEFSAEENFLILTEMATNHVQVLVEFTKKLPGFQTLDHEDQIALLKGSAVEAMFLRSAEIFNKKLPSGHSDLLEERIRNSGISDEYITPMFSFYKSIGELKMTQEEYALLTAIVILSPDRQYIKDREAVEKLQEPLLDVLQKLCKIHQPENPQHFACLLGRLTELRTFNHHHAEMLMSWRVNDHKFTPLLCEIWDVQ
T2 sequence (Q15788 676-700 partner limits assumed): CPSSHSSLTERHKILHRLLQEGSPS
The data set is described as follows: Agonistic activity on FXR receptor (GST-FXR / SRC-1 bead assay, protein level). The format is biochemical. The conditions noted are these: 0.4 nM FXR, 30 nM SRC-1, protein level. As to the method:
Experimental procedures: FXR (GST-labeled recombinant human FXR protein, manufacturer: Invitroren, Item number: PV4835) and SRC-1 (steroid receptor co-activator-1) are thawed on ice. Three solutions of ABC are prepared by a buffer solution, solution A, 0.4 n M FXR and 30 nM SRC-1; solution B, 10 ug/ml Acceptor Beads; solution C, 10 ug/ml Donor Beads. Solution A is added to the plate at 15 uL per well. It is incubated at room temperature for 1 hour. Solution B is added to the plate at 7.5 uL per well. It is incubated at room temperature for 1 hour. Solution C is added to the plate at 7.5 uL per well. It is incubated at room temperature for 1 hour. It is read from the microplate reader Envision. The data are curve fitted by using Prism 5.0 to calculate the EC50.

The conditions of data set [4]: literature; cited from earlier work.
Where [5] appears, read: Caco-2 cell line (21 days), Table 5.
Where [6] appears, read: Caco-2, Recovery rate A-B, Average.
[7] abbreviates: Caco-2, Recovery rate A-B, Sample-01.
Where [8] appears, read: Caco-2, Recovery rate A-B, Sample-02.

Broadly, the efflux ratio is the permeability from basolateral to apical divided by that in the opposite direction, in the common usage. For orientation: Papp A→B means the apparent permeability from the apical to the basolateral side of a cell layer. Low readings indicate poor permeation, high ones ready permeation. A word on the Papp B→A: it is how fast a substance crosses the layer from the basolateral side. As to `C[C@H]1O[C@@H](O[C@H]2[C@@H](O)C[C@H](O[C@H]3[C@@H](O)C[C@H](O[C@H]4CC[C@@]5(C)[C@H](CC[C@@H]6[C@@H]5C[C@@H](O)[C@]5(C)[C@@H](C7=CC(=O)OC7)CC[C@]65O)C4)O[C@@H]3C)O[C@@H]2C)C[C@H](O)[C@@H]1O` [Digoxin, digoxin, reference compound], the “Papp A-B, Average” value in data set [1] (Caco-2, A-B, Average (Table 3)) is <0.04 10−6 cm/s. Also, the “Efflux rate = Papp B-A/Papp A-B” value in data set [1] (Caco-2 cell line (21 days)) is greater than 262.93. Also, the efflux ratio in data set [2] is greater than 263. For the same compound, the Papp A→B in data set [2] (Average, Caco-2, A-B, Average (Table 3)) is less than 0.04 ×10⁻⁶ cm/s; in data set [2] (setting [5]), less than 0.04 ×10⁻⁶ cm/s; in data set [2] (Sample-01, Caco-2, A-B, Sample-01), less than 0.05 ×10⁻⁶ cm/s; in data set [2] (Sample-02, Caco-2, A-B, Sample-02) it was less than 0.04 ×10⁻⁶ cm/s. The Papp B→A stood at 11.6 ×10⁻⁶ cm/s in data set [2] (Average, Caco-2, B-A, Average (Table 3)); 11.6 ×10⁻⁶ cm/s in data set [2] (setting [5]); 11.7 ×10⁻⁶ cm/s in data set [2] (Sample-01, Caco-2, B-A, Sample-01); 11.5 ×10⁻⁶ cm/s in data set [2] (Sample-02, Caco-2, B-A, Sample-02). Also, the recovery was less than 87% in data set [2] (Caco-2, Recovery rate A-B, Average, Caco-2, A-B); less than 85.2% in data set [2] (Caco-2, Recovery rate A-B, Sample-01, Caco-2, A-B, Sample-01); less than 88.7% in data set [2] (Caco-2, Recovery rate A-B, Sample-02, Caco-2, A-B, Sample-02); 94.6% in data set [2] (Caco-2, Recovery rate B-A, Average, Caco-2, B-A); 93.7% in data set [2] (Caco-2, Recovery rate B-A, Sample-01, Caco-2, B-A, Sample-01); 95.4% in data set [2] (Caco-2, Recovery rate B-A, Sample-02, Caco-2, B-A, Sample-02).

As usually defined, the EC50 is the midpoint of the concentration-response curve. For `Cc1cc(C(=O)O)cc(C2CC(O)(c3cnc(OCc4c(-c5c(Cl)cccc5Cl)noc4C4CC4)cn3)C2)c1` (centres unmarked) [TM-08, 3-(3-(5-((5-cyclopropyl-3-(2,6-dichlorophenyl)isoxazol-4-yl)methoxy)pyrazine-2-yl)-3-hydroxycyclobutyl)-5-methyl benzoic acid], the 50% effective concentration (EC50) on FXR worked out at 1.51 µM; in data set [3], 0.24 µM. For the same compound, the “membrane permeation in Caco-2 (in words)” value in data set [1] (Caco-2) is listed as “poor effect”. Moreover, the efflux ratio in data set [2] stood at 16.9. For the same compound, the Papp A→B in data set [2] is 0.58 ×10⁻⁶ cm/s; in data set [2] (Average) it was 0.97 ×10⁻⁶ cm/s; in data set [2] (Sample-01), 1.01 ×10⁻⁶ cm/s; in data set [2] (Sample-02), 0.94 ×10⁻⁶ cm/s. Besides, the Papp B→A in data set [2] came out at 9.89 ×10⁻⁶ cm/s. Further, the recovery was 99% in data set [2] (setting [6]), 99.6% in data set [2] (setting [7]) and 98.5% in data set [2] (setting [8]).

In general, t½ refers to the time needed for the level to fall by half in the phase considered. Turning to `CC(C)c1onc(-c2c(Cl)cccc2Cl)c1COc1ccc(/C=C/c2cccc(C(=O)O)c2)c(Cl)c1` [GW4064], in data set [4], the oral availability was 10% and the t½ is 3.5 h.

For the compound `O=C(O)c1cccc(C2CC(O)(c3ccc(OCc4c(-c5c(Cl)cccc5Cl)noc4C4CC4)cc3Cl)C2)c1` (centres unmarked) [Compound M3, reference compound], the EC50 amounted to 1.49 µM at FXR and 1.09 µM in data set [3]. The “membrane permeation in Caco-2 (in words)” value in data set [1] (Caco-2) was “poor permeation”. Further, in data set [1] (human, Caco-2), the “Papp A-B, Average” value is on record as <0.15 10−6 cm/s. Besides, in data set [2], the efflux ratio was greater than 76.8. The Papp A→B in data set [2] was less than 0.15 ×10⁻⁶ cm/s; in data set [2] (Average) it was less than 0.15 ×10⁻⁶ cm/s; in data set [2] (Sample-01) it was less than 0.16 ×10⁻⁶ cm/s; in data set [2] (Sample-02) it was less than 0.14 ×10⁻⁶ cm/s. In addition, the Papp B→A in data set [2] turned out to be 11.6 ×10⁻⁶ cm/s; in data set [2] (Average), 11.6 ×10⁻⁶ cm/s; in data set [2] (Sample-01), 13.3 ×10⁻⁶ cm/s; in data set [2] (Sample-02) it was 9.96 ×10⁻⁶ cm/s. In addition, the recovery in data set [2] (setting [6]) was less than 21.8%; in data set [2] (setting [7]) it was less than 27.2%; in data set [2] (setting [8]), less than 16.4%; in data set [2] (Caco-2, Recovery rate B-A, Average) it was 36%; in data set [2] (Caco-2, Recovery rate B-A, Sample-01), 36.3%; in data set [2] (Caco-2, Recovery rate B-A, Sample-02) it was 35.6%.
